Consider two compounds from PMC12147714 (FEMS Microbiology Letters, 2025).

Series [1] has as its system PAO1 TnoprD producing IMP-1. Nature of the series: MIC and checkerboard by broth microdilution, recombinant strain. Format: cell-based, Pseudomonas aeruginosa. To be noted: IMP-1 TnoprD; antibiotic alone. As to the method: (§1) The fractional inhibitory concentration index (FICI) was calculated and interpreted as follows: the MIC of drug A in combination/the MIC of drug A alone + the MIC of drug B in combination/the MIC drug B alone. FICI ≤ 0.5 = synergy; 0.5 < FICI ≤ 1 = additive; FICI 1 < FICI < 2 = indifference, and FICI ≥ 2 = antagonism. All susceptibility testing/checkerboard assays were performed in triplicate.

Series [2] relates to PAO1 TnoprD producing NDM-1. The series is described as above. Format: cell-based, Pseudomonas aeruginosa. The following applies: NDM-1 TnoprD; antibiotic alone. As to the method:
as §1

Series [3] deals with PAO1 TnoprD producing VIM-1. Described as above. Format: cell-based, Pseudomonas aeruginosa. The following applies: VIM-1 TnoprD; antibiotic alone. Here is the method: as §1
In the next series the test system is PAO1 producing NDM-1. The description is as above. In kind it is cell-based, Pseudomonas aeruginosa. To be noted: antibiotic alone. Here is the method: as §1
Series [4] has as its system PAO1 TnoprD producing IMP-10. Described as above. Format: cell-based, Pseudomonas aeruginosa. The following applies: IMP-10 TnoprD; antibiotic alone.
Excerpt: (§2) Pseudomonas aeruginosa isolate, PAO1, was used alongside its isogenic counterpart, PAO1 TnoprD, which lacks a functional OprD porin (Held et al. [2012]). β-lactamases, blaIMP-1, blaIMP-10, blaIMP-13, blaNDM-1, blaSPM-1, blaVIM-1, blaVIM-2, and blaKPC-2, had previously been cloned into the pUCP24 shuttle vector (Bouvier et al. [2025]), and were transformed by electroporation into both PAO1 and PAO1 TnoprD.
as §1, with “. MICs of DMSA, CAZ, FEP and checkerboards for the combinations, CAZ/DMSA and FEP/DMSA, were performed for all clinical isolates. All susceptibility testing results were interpreted according to CLSI guidelines (CLSI [2023]). The” for “The”

For series [5], the system named is PAO1 TnoprD producing IMP-13. Described as above. The following applies: IMP-13 TnoprD; antibiotic alone. In kind it is cell-based, Pseudomonas aeruginosa.
Excerpt: as §2
as §1, with “. MICs of DMSA, CAZ, FEP and checkerboards for the combinations, CAZ/DMSA and FEP/DMSA, were performed for all clinical isolates. All susceptibility testing results were interpreted according to CLSI guidelines (CLSI [2023]). The” for “The”

Series [6] relates to PAO1 TnoprD producing SPM-1. The series is described as above. To be noted: SPM-1 TnoprD; antibiotic alone. Format: cell-based, Pseudomonas aeruginosa.
Excerpt: as §2
as §1, with “. MICs of DMSA, CAZ, FEP and checkerboards for the combinations, CAZ/DMSA and FEP/DMSA, were performed for all clinical isolates. All susceptibility testing results were interpreted according to CLSI guidelines (CLSI [2023]). The” for “The”

Series [7] has as its system PAO1 TnoprD producing VIM-2. The series is described as above. Format: cell-based, Pseudomonas aeruginosa. To be noted: VIM-2 TnoprD; antibiotic alone.
Excerpt: as §2
as §1, with “. MICs of DMSA, CAZ, FEP and checkerboards for the combinations, CAZ/DMSA and FEP/DMSA, were performed for all clinical isolates. All susceptibility testing results were interpreted according to CLSI guidelines (CLSI [2023]). The” for “The”

The next series deals with PAO1 producing IMP-13. The series is described as above. The following applies: antibiotic alone. In kind it is cell-based, Pseudomonas aeruginosa.
Excerpt: as §2
as §1, with “. MICs of DMSA, CAZ, FEP and checkerboards for the combinations, CAZ/DMSA and FEP/DMSA, were performed for all clinical isolates. All susceptibility testing results were interpreted according to CLSI guidelines (CLSI [2023]). The” for “The”

The test system of the next series is PAO1 producing IMP-1. The description is as above. In kind it is cell-based, Pseudomonas aeruginosa. To be noted: antibiotic alone.
Excerpt: as §2
as §1, with “. MICs of DMSA, CAZ, FEP and checkerboards for the combinations, CAZ/DMSA and FEP/DMSA, were performed for all clinical isolates. All susceptibility testing results were interpreted according to CLSI guidelines (CLSI [2023]). The” for “The”

The next series relates to PAO1 producing SPM-1. The series is described as above. In kind it is cell-based, Pseudomonas aeruginosa. To be noted: antibiotic alone.
Excerpt: as §2
as §1, with “. MICs of DMSA, CAZ, FEP and checkerboards for the combinations, CAZ/DMSA and FEP/DMSA, were performed for all clinical isolates. All susceptibility testing results were interpreted according to CLSI guidelines (CLSI [2023]). The” for “The”

The test system of another series is PAO1 producing VIM-1. Described as above. The following applies: antibiotic alone. In kind it is cell-based, Pseudomonas aeruginosa.
Excerpt: as §2
as §1, with “. MICs of DMSA, CAZ, FEP and checkerboards for the combinations, CAZ/DMSA and FEP/DMSA, were performed for all clinical isolates. All susceptibility testing results were interpreted according to CLSI guidelines (CLSI [2023]). The” for “The”

The test system of a further series is PAO1 producing VIM-2. Described as above. In kind it is cell-based, Pseudomonas aeruginosa. The following applies: antibiotic alone.
Excerpt: as §2
as §1, with “. MICs of DMSA, CAZ, FEP and checkerboards for the combinations, CAZ/DMSA and FEP/DMSA, were performed for all clinical isolates. All susceptibility testing results were interpreted according to CLSI guidelines (CLSI [2023]). The” for “The”

On the set-up of series [8]: method as in van Eijkeren et al. 2016. To be noted: 30 mg/kg dose; ref van Eijkeren et al. 2016; cited from earlier work.
A further series relates to MBL-producing E. coli. The following applies: high concentrations, ref Cheminet et al. 2020, cited from earlier work.
Series [9] has as its system MBL-producers in isogenic strains of P. aeruginosa. On the set-up: method as in Bouvier et al. 2025. The following applies: ref Bouvier et al. 2025, cited from earlier work.
A further series deals with IMP-10 (Serratia marcescens, UniProt P52699, V49F). Nature of the series: IC50, inhibition of cephalothin hydrolysis by crude extract. The following applies: IMP-10; 100 μM cephalothin, pH 7.0.
IMP-10, sequence (P52699 19-246 V49F): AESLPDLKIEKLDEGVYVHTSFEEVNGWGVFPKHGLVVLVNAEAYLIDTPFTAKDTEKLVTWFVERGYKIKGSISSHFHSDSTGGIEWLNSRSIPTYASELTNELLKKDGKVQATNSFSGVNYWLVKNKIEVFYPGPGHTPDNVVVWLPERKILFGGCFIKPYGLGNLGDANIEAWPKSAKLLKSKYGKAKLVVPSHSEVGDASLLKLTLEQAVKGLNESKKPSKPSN
Another series has as its target IMP-13 (Pseudomonas aeruginosa, UniProt Q7WYA8). Described as above. The following applies: IMP-13; 100 μM cephalothin, pH 7.0.
The next series deals with NDM-1 (Klebsiella pneumoniae, UniProt C7C422). The description is as above. The following applies: 100 μM cephalothin, pH 7.0.
NDM-1, sequence (C7C422 29-270 limits assumed): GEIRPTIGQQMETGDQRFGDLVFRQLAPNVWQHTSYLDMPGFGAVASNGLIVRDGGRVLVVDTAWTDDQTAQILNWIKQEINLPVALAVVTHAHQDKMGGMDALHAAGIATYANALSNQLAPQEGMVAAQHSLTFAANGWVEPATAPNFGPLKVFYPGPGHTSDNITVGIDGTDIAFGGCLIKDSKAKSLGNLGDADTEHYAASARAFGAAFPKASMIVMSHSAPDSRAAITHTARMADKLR
Another series addresses SPM-1 (Pseudomonas aeruginosa, UniProt Q8G9Q0). Described as above. To be noted: SPM-1; 100 μM cephalothin, pH 7.0.
The target in a further series is VIM-1 (Pseudomonas aeruginosa, UniProt A0A0F7KYQ8). The series is described as above. To be noted: VIM-1; 100 μM cephalothin, pH 7.0.
The target in the next series is VIM-2 (Escherichia coli, UniProt Q5U7L7). Described as above. To be noted: VIM-2; 100 μM cephalothin, pH 7.0.

Each structure is given as a SMILES string.

IMP-13, sequence (Q7WYA8 21-246): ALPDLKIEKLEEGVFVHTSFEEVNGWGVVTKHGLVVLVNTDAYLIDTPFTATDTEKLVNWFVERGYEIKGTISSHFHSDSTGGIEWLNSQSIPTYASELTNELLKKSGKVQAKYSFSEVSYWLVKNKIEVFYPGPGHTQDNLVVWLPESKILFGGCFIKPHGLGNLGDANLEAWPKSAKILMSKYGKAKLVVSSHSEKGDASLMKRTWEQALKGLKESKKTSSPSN
SPM-1, sequence (Q8G9Q0 entry or part of it): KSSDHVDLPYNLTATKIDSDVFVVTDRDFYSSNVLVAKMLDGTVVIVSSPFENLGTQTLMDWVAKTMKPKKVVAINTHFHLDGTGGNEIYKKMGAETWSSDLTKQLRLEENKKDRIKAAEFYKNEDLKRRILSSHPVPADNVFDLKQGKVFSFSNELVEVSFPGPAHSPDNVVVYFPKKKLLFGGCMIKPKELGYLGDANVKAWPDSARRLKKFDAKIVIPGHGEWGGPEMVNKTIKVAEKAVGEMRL

Take `CC(C)(O/N=C(\C(=O)N[C@@H]1C(=O)N2C(C(=O)[O-])=C(C[n+]3ccccc3)CS[C@H]12)c1csc(N)n1)C(=O)O` [CAZ, ceftazidime]: the MIC in series [1] was 1020 µg/mL; in series [2] it was 4100 µg/mL; in series [3], 2050 µg/mL; in the series with PAO1 producing NDM-1, 4100 µg/mL; in [4] it was 2050 µg/mL; in series [5], 64 µg/mL. Besides, the MIC in series [6] stood at 512 µg/mL; in series [7], 8 µg/mL; in the series with PAO1 producing IMP-13 it was 64 µg/mL; in the series with PAO1 producing IMP-1, 1020 µg/mL; in the series with PAO1 producing SPM-1, 512 µg/mL; in the series with PAO1 producing VIM-1, 2050 µg/mL. In addition, the MIC in the series with PAO1 producing VIM-2 was 8 µg/mL.

Consider `O=C(O)[C@@H](S)[C@@H](S)C(=O)O` [DMSA, meso-dimercaptosuccinic acid], for which the tolerability entry in series [8] was “well tolerated”. Moreover, in the series with MBL-producing E. coli (MBL-producing E. coli), the “efficacy in mouse peritonitis model” value was “effective”. Further, the “tolerability in mouse peritonitis model” value in the series on MBL-producing E. coli is listed as “well-tolerated”. In addition, the “effect on carbapenem (IPM and MEM) MICs” value in series [9] (DMSA at 3 mM) was “significantly reduce”. Besides, the “type of interaction with carbapenems” value in series [9] is given as “additive”. Besides, the IC50 against IMP-10 is 50 µM; against IMP-13 it was 350 µM; against NDM-1 it was more than 1000 µM; at SPM-1, more than 1000 µM; against VIM-1, more than 1000 µM; against VIM-2, more than 1000 µM.
